Earlier results in patent publication US20220000907A1, “MOUTHWASH/GARGLE, NASAL/ORAL/NASAL SPRAY COVID AND BACTERIOCIDE ARRANGEMENT” (priority 2020, published 2022).

What was measured:
[1] = system: microbes; conditions: 1.0% PVPI solution gives 0.1% available iodine
[2] = system: all seven classes of viral organisms

## polyvinylpyrrolidone iodine [PVPI]
[1]
  most effective antimicrobial concentration of PVPI (peak of bell curve of microbial killing): 1%
[2]; PVPI in solution
  effectiveness against all classes of viruses (I-VII): effective
[2]; effective concentration of 0.1% available iodine
  inactivation of all classes of viruses: inactivated
